Results: PMC10287555, “Camonsertib in DNA damage response-deficient advanced solid tumors: phase 1 trial results” (Nature Medicine, 2023)

Test: Dose-limiting toxicities (DLTs), TRESR phase 1 module 1
Type: in vivo
Experimental: The starting dose of camonsertib was 5 mg administered on a 5-d-on, 2-d-off (5/2) schedule given once daily (QD) in 21-d cycles. Dose escalation proceeded until a total daily dose of 160 mg was achieved. Per protocol, based on emerging safety, PK and PD data, an alternative schedule of 3 d on, 4 d off (3/4) was then started at a daily dose of 120 mg and escalated to 200 mg, and 160 mg QD (3/4) of camonsertib was proposed as the preliminary RP2D based on long-term (>6 weeks) safety, tolerability, PK and PD data. The dose-limiting toxicity (DLT) rate at the proposed preliminary RP2D was 8% (2/25). All DLTs comprised hematologic toxicities (Table 2).
Patients were treated with single-agent camonsertib at doses ranging from 5–160 mg QD to 40–80 mg twice daily, administered orally on a 5/2 or 3/4 weekly schedule. An intermittent schedule of 2 weeks on/1 week off was also evaluated at dose levels of 160 mg and 200 mg QD (3/4). Each cycle comprised 21 d of treatment. Module 1 dose-escalation decisions based on patients in M1a and M1b cohorts were governed by the Bayesian optimal interval (BOIN) design starting with single-patient cohorts in M1a. […] Escalation of M1a and M1b occurred in parallel until the maximum tolerated dose (MTD) […] RP2D was determined for each schedule. Backfill cohorts were employed to (1) aid in the assessment of possible anti-tumor activity in a subset of patients with a specific gene abnormality or tumor type; (2) allow additional PK/PD evaluation; and (3) further assess drug-related toxicities. Patient safety review and dose decisions were carried out by a Safety Review Committee, comprised of the study investigators and sponsor representatives.
All safety and efficacy endpoints were summarized with descriptive statistics. Safety data were summarized using the safety population, which consisted of all patients who received at least one dose of RP-3500. The DLT rate was based on the DLT-evaluable population, which included those patients in dose-escalation cohorts (M1a and M1b only) receiving ≥80% of planned doses of camonsertib, who completed all required safety evaluations and were observed through the end of cycle 1 or patients who experienced a DLT. Due to the different number of dose levels expected and the exploratory nature of the phase 1 study, anti-tumor activity parameters were primarily based on patients who received ≥1 dose of RP-3500 and had ≥1 post-baseline tumor assessment by RECIST 1.1 and/or GCIG CA-125 or PCWG3 PSA criteria, with an initial dose level of >100 mg d^−1 (dose level predicted to achieve efficacious exposure), as defined in the statistical analysis plan. Additional subgroups based on tumor types or genotypes of interest were based on this efficacy analysis set. […] Patients were, therefore, enrolled in the study and endpoints assessed regardless of sex, gender and race. No formal statistical tests were performed in this study. However, nominal P values (two-sided) were provided for the hypothesis-generating purpose of selected exploratory endpoints, without adjusting for multiplicity. A log-rank test was used in between-group comparisons for the time-to-event endpoints (PFS and DOT), and Fisher’s exact test was used in between-group comparisons for the binary endpoints (CBR, MR, etc.).

[1] = 3/4 schedule, 60 mg BID (n = 3)
[2] = 3/4 schedule, 120 mg QD (n = 17)
[3] = 3/4 schedule, 160 mg QD (n = 25)
[4] = 3/4 schedule, 2/1w, 160 mg QD (n = 25)
[5] = 3/4 schedule, 2/1w, 200 mg QD (n = 5)
[6] = 5/2 schedule, 40 mg BID (n = 1)
[7] = 5/2 schedule, 100 mg QD (n = 4)
[8] = 5/2 schedule, 120 mg QD (n = 4)
[9] = 5/2 schedule, 160 mg QD (n = 3)
[10] = 5/2 schedule, 5–80 mg QD (n = 5)

With `C[C@@H]1COCCN1c1cc([C@]2(O)C[C@H]3CC[C@@H](C2)O3)c2cnn(-c3cc[nH]n3)c2n1` [camonsertib] the “DLT rate at the proposed preliminary RP2D” value (160 mg QD (3/4), 2/25) was 8%, the “Any DLT event” value [1] was 1 (33.3) n (%) and the “DLT: Anemia” value [1] was 1 (33.3) n (%). For the same molecule, the “DLT: Febrile neutropenia” value [1] was 0 n (%), the “DLT: Neutrophil count decreased” value [1] was 0 n (%) and the “DLT: Platelet count decreased” value [1] was 0 n (%). For the same molecule, the “Any DLT event” value [2] was 1 (5.9) n (%), the “DLT: Anemia” value [2] was 1 (5.9) n (%) and the “DLT: Febrile neutropenia” value [2] was 0 n (%). For the same molecule, the “DLT: Neutrophil count decreased” value [2] was 0 n (%), the “DLT: Platelet count decreased” value [2] was 0 n (%) and the “Any DLT event” value [3] was 2 (8.0) n (%). For the same molecule, the “DLT: Anemia” value [3] was 2 (8.0) n (%), the “DLT: Febrile neutropenia” value [3] was 0 n (%) and the “DLT: Neutrophil count decreased” value [3] was 0 n (%). For the same molecule, the “DLT: Platelet count decreased” value [3] was 0 n (%), the “Any DLT event” value [4] was 2 (8.0) n (%) and the “DLT: Anemia” value [4] was 1 (4.0) n (%). For the same molecule, the “DLT: Febrile neutropenia” value [4] was 0 n (%), the “DLT: Neutrophil count decreased” value [4] was 1 (4.0) n (%) and the “DLT: Platelet count decreased” value [4] was 0 n (%). For the same molecule, the “Any DLT event” value [5] was 1 (20.0) n (%), the “DLT: Anemia” value [5] was 1 (20.0) n (%) and the “DLT: Febrile neutropenia” value [5] was 1 (20.0) n (%). The “DLT: Neutrophil count decreased” value [5] was 0 n (%), the “DLT: Platelet count decreased” value [5] was 1 (20.0) n (%) and the “Any DLT event” value [6] was 0 n (%). For the same molecule, the “DLT: Anemia” value [6] was 0 n (%), the “DLT: Febrile neutropenia” value [6] was 0 n (%) and the “DLT: Neutrophil count decreased” value [6] was 0 n (%). For the same molecule, the “DLT: Platelet count decreased” value [6] was 0 n (%), the “Any DLT event” value [7] was 2 (50.0) n (%) and the “DLT: Anemia” value [7] was 1 (25.0) n (%). The “DLT: Febrile neutropenia” value [7] was 0 n (%), the “DLT: Neutrophil count decreased” value [7] was 0 n (%) and the “DLT: Platelet count decreased” value [7] was 1 (25.0) n (%). The “Any DLT event” value [8] was 0 n (%), the “DLT: Anemia” value [8] was 0 n (%) and the “DLT: Febrile neutropenia” value [8] was 0 n (%). The “DLT: Neutrophil count decreased” value [8] was 0 n (%), the “DLT: Platelet count decreased” value [8] was 0 n (%) and the “Any DLT event” value [9] was 0 n (%). For the same molecule, the “DLT: Anemia” value [9] was 0 n (%), the “DLT: Febrile neutropenia” value [9] was 0 n (%) and the “DLT: Neutrophil count decreased” value [9] was 0 n (%). The “DLT: Platelet count decreased” value [9] was 0 n (%), the “Any DLT event” value [10] was 0 n (%) and the “DLT: Anemia” value [10] was 0 n (%). For the same molecule, the “DLT: Febrile neutropenia” value [10] was 0 n (%), the “DLT: Neutrophil count decreased” value [10] was 0 n (%) and the “DLT: Platelet count decreased” value [10] was 0 n (%). For the same molecule, the “Preliminary recommended phase 2 dose (RP2D)” value (QD, 3 d on/4 d off (weekly on days 1–3)) was 160 mg, the “Any DLT event” value (Total DLT evaluable (n = 92)) was 9 (9.8) n (%) and the “DLT: Anemia” value (Total DLT evaluable (n = 92)) was 7 (7.6) n (%). For the same molecule, the “DLT: Febrile neutropenia” value (Total DLT evaluable (n = 92)) was 1 (1.1) n (%), the “DLT: Neutrophil count decreased” value (Total DLT evaluable (n = 92)) was 1 (1.1) n (%) and the “DLT: Platelet count decreased” value (Total DLT evaluable (n = 92)) was 2 (2.2) n (%).
